Consider 11 compounds from US8569314B2, “Triazolo and tetrazolo pyrimidine derivatives as HNE inhibitors for treating COPD” (Bayer Intellectual Property GmbH, priority 2009, dated 2013).

For one experiment, the target named is pancreas elastase (Sus scrofa (Pig), UniProt P00772). The settings on record: cited from earlier work.
Experiment [1] addresses human neutrophil elastase (HNE) (Homo sapiens (Human), UniProt P08246). The experiment is described as follows: In vitro HNE inhibition assay (fluorogenic peptide substrate MeOSuc-Ala-Ala-Pro-Val-AMC). The settings on record: HNE concentration of 80 pM; 37° C., 2 hours. In kind it is biochemical. An excerpt: B-1. In Vitro HNE Inhibition Assay
The potency of the compounds of the invention is ascertained in an in vitro inhibition assay. The HNE-mediated amidolytic cleavage of a suitable peptide substrate leads in this connection to an increase in the fluorescent light. The signal intensity of the fluorescent light is directly proportional to the enzyme activity. The effective concentration of a test compound at which half the enzyme is inhibited (50% signal intensity of the fluorescent light) is indicated as IC50.
Enzyme (80 pM HNE; from Serva, Heidelberg) and substrate (20 μM MeOSuc-Ala-Ala-Pro-Val-AMC; from Bachem, Weil am Rhein) are incubated in an assay volume of in total 50 μl of assay buffer (0.1 M HEPES pH 7.4, 0.5 M NaCl, 0.1% w/v BSA, 1% v/v DMSO) in a 384-well microtiter plate in the presence and absence of the test substance at 37° C. for 2 hours. The intensity of the fluorescent light from the assay mixtures is measured (Ex. 380 nm, Em. 460 nm). The IC50 values are determined by plotting the intensity of the fluorescent light against the active substance concentration.

Where a name gives a salt, the structure may show the parent alone. Where only a bound is given, the exact number is not on record here.

Sequence of human neutrophil elastase (HNE) (P08246 30-267): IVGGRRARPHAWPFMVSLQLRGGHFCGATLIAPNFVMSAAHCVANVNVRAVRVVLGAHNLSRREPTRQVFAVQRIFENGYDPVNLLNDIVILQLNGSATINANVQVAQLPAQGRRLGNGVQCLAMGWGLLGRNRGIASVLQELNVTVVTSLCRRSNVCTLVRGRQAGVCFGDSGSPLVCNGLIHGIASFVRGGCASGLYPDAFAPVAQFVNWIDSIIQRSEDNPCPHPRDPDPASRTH
Sequence of pancreas elastase (P00772 27-266): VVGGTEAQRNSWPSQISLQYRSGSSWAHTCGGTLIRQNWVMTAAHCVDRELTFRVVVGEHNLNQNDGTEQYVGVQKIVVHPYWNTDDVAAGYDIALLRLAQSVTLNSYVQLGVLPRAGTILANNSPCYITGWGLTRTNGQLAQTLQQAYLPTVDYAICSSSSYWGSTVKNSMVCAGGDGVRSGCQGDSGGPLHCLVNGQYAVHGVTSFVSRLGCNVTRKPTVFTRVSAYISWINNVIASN

As usually defined, the IC50 is the concentration that gives 50% inhibition. Regarding `CC(C)(C)C(=O)Oc1ccc(S(=O)(=O)Nc2ccccc2C(=O)NCC(=O)O)cc1` [sivelestat], the IC50 on pancreas elastase was 5600 nM.
`CC1=C(C#N)C(c2ccc(C#N)cc2S(C)(=O)=O)n2nc(N3C(=O)c4ccccc4C3=O)nc2N1c1cccc(C(F)(F)F)c1` (racemic) [Example 5, (rac)-7-[4-Cyano-2-(methylsulfonyl)phenyl]-2-(1,3-dioxo-1,3-dihydro-2H-isoindol-2-yl)-5-methyl-4-[3-(trifluoromethyl)phenyl]-4,7-dihydro[1,2,4]triazolo[1,5-a]pyrimidine-6-carbonitrile]: the IC50 in experiment [1] is below 0.3 nM.
The same measure, in the same setting: then `CCOC(=O)Nc1nc2n(n1)C(c1ccc(C#N)cc1)C(C(=O)OCC)=C(C)N2c1cccc(C(F)(F)F)c1` (centres unmarked) [Example 50, Ethyl 7-(4-cyanophenyl)-2-[(ethoxycarbonyl)amino]-5-methyl-4-[3-(trifluoromethyl)phenyl]-4,7-dihydro[1,2,4]triazolo[1,5-a]pyrimidine-6-carboxylate], with below 0.3 nM; and `CCOC(=O)C1=C(C)N(c2cccc(C(F)(F)F)c2)c2nc3cncnc3n2C1c1ccc(C#N)cc1` (racemic) [Example 78, Ethyl(rac)-9-(4-cyanophenyl)-7-methyl-6-[3-(trifluoromethyl)phenyl]-6,9-dihydropyrimido[1,2-e]-purin-8-carboxylate], with 3 nM; and `CCOC(=O)C1=C(C)N(c2cccc(C(F)(F)F)c2)c2nccn2[C@@H]1c1ccc(C#N)cc1` [Example 90, Ethyl (5R)-5-(4-cyanophenyl)-7-methyl-8-[3-(trifluoromethyl)phenyl]-5,8-dihydroimidazo[1,2-a]-pyrimidine-6-carboxylate], with 6.5 nM.
Still for that read-out and setting: then `CC1=C(C#N)[C@@H](c2ccc(C#N)cc2S(C)(=O)=O)n2nc(N)nc2N1c1cccc(C(F)(F)F)c1` [Example 9, (7S)-2-Amino-7-[4-cyano-2-(methylsulfonyl)phenyl]-5-methyl-4-[3-(trifluoromethyl)phenyl]-4,7-dihydro[1,2,4]triazolo[1,5-a]pyrimidine-6-carbonitrile hydrochloride], with below 0.3 nM.
The same measure, in the same setting: then `CC1=C(C#N)[C@@H](c2ccc(C#N)cc2)n2nc(NC(=O)NCCO)nc2N1c1cccc(C(F)(F)F)c1` [Example 53, 1-{(7R)-6-Cyano-7-(4-cyanophenyl)-5-methyl-4-[3-(trifluoromethyl)phenyl]-4,7-dihydro[1,2,4]triazolo[1,5-a]pyrimidin-2-yl}-3-(2-hydroxyethyl)urea], with below 0.3 nM; and `CCNc1nc2n(n1)[C@H](c1ccc(C#N)cc1)C(C#N)=C(C)N2c1cccc(C(F)(F)F)c1` [Example 56, (7R)-7-(4-Cyanophenyl)-2-(ethylamino)-5-methyl-4-[3-(trifluoromethyl)phenyl]-4,7-dihydro-[1,2,4]triazolo[1,5-a]pyrimidine-6-carbonitrile], with below 0.3 nM; and `CC1=C(C#N)[C@@H](c2ccc(C#N)cc2)n2nc(NC(=O)C3CCCCC3)nc2N1c1cccc(C(F)(F)F)c1` [Example 23, N-{(7R)-6-Cyano-7-(4-cyanophenyl)-5-methyl-4-[3-(trifluoromethyl)phenyl]-4,7-dihydro[1,2,4]triazolo[1,5-a]pyrimidin-2-yl}cyclohexanecarboxamide], with below 0.3 nM.
`CC1=C(C#N)[C@@H](c2ccc(C#N)cc2S(C)(=O)=O)n2nc(NC(=O)C3CC3)nc2N1c1cccc(C(F)(F)F)c1` [Example 35, N-{(7S)-6-Cyano-7-[4-cyano-2-(methylsulfonyl)phenyl]-5-methyl-4-[3-(trifluoromethyl)phenyl]-4,7-dihydro[1,2,4]triazolo[1,5-a]pyrimidin-2-yl}cyclopropanecarboxamide]: the IC50 in experiment [1] is below 0.3 nM.
On the same count and under the same terms, in the case of `CC1=C(C#N)C(c2ccc(C#N)cc2)n2nc(C(C)C)nc2N1c1cccc(C(F)(F)F)c1` (racemic) [Example 67, (rac)-7-(4-Cyanophenyl)-5-methyl-2-(1-methylethyl)-4-[3-(trifluoromethyl)phenyl]-4,7-dihydro-[1,2,4]triazolo[1,5-a]pyrimidine-6-carbonitrile] it was 85 nM.
